From publication PMC11920646 (Frontiers in Pharmacology, 2025)

What was measured:
[1] = tested on: OPG release in human osteoblast cell line MG-63; test: Inhibition of OPG release in MG-63 osteoblast cells; format: cell-based; details: MG-63 cells, 24 h
Method: ([Humphrey et al., 2006]). […] After a 24-h incubation in standard conditions, supernatant was collected and OPG measured using the human osteoprotegerin/TNFRSF11B DuoSet® ELISA (R&D Systems, Minneapolis, MN, United States), according to the manufacturer’s instructions (Supplementary Material). A 3-parameter nonlinear regression was performed using GraphPad PRISM v7.03 software (Graphpad Software Inc.) to determine IC50 values.
All incubations in this assay were conducted at room temperature. Anti-OPG capture antibodies, diluted in Dulbecco's phosphate-buffered saline (DPBS), were transferred into a coated 96-well plate (100 µL/well). After overnight incubation, and triplicate washing (400 µL/well) with wash buffer (0.05% Tween 20 in DPBS, pH 7.2–7.4), 300 µL of Reagent Diluent (1% bovine serum albumin [BSA] in DPBS) was added, followed by a 1-h incubation, and thereafter three washing steps again. Then, 100 µL of supernatant, standard or reagent diluent were added per well for a 2-h incubation. After repeating three washing steps, 100 µL of detection antibody diluted in reagent diluent (including normal goat serum) were added to each well, followed by a 2-h incubation. After repeating three washing steps, 100 µL of Streptavidin conjugated to horseradish-peroxidase solution was added per well for a 20-min incubation. Finally, 50 µL/well of stop solution was added. After gently shaking of the plate to ensure thorough mixing, the optical density of each well was determined immediately using the Eon™ Microplate Spectrophotometer (Bio Tek Instruments) set at 450 nm.
Supplementary Figure S2. […] Error bars indicate standard error of the mean. […] Log c, log concentration.

[2] = tested on: IL-6 release in A549 cells; parameters: method as in Hu et al., 2011; details: dagrocorat study ref Hu et al., 2011; cited from earlier work

C[C@]12C=CC(=O)C=C1CC[C@@H]1[C@@H]2[C@@H](O)C[C@@]2(C)[C@H]1CC[C@]2(O)C(=O)CO [Prednisolone]
IC50 ([1]; Homo sapiens): 3.1 ± 4.3 nM
Inhibition of OPG release (maximal level) [1]: 100 ± 0%
Inhibition of OPG release (maximal level) ([1]; listed as prednisolone): fully inhibiting OPG release
inhibition of IL-6 release in A549 cells [2]: 100%
